In US9169209B2, “Compounds and compositions for the inhibition of NAMPT” (FORMA TM, LLC, priority 2011, dated 2015):
Where two headings read alike, the source gives them in different places.

Key:
NAMPT = NAMPT (Homo sapiens (Human), UniProt P43490); test: Biochemical Inhibition Assay (NAMPT enzymatic reaction, NMN quantified by mass spectrometry); settings: recombinant His-tagged NAMPT, 33 nM; 1 μM NAM; read-out: Biochem IC50
How it was run: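 His-tagged human NAMPT from E. coli was preincubated 15 min at RT with compound in Hepes pH 7.5/MgCl2 buffer. Reaction ran 30 min at RT with 1 μM NAM, 100 μM PRPP and 2.5 mM ATP, then was quenched with formic acid. NMN was measured by RapidFire MS, normalized to L-cystathionine, and IC50 derived from % inhibition.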

A2780 cells = test: In-Vitro Cell Proliferation Assay (SRB, 72 hours); assay type: cell-based; settings: A2780 cells, 72 hours, sulforhodamine B, read-out: A2780 IC50
How it was run: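 Plated cells exposed to serially diluted compound (0.1% DMSO final) for 72 h at 37 °C, 5% CO2. Viability by SRB staining after TCA fixation, absorbance 570 nm, media-only background subtracted; % inhibition relative to DMSO-treated cells, interpolated between bracketing concentrations.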

NAMPT, sequence (P43490 whole entry): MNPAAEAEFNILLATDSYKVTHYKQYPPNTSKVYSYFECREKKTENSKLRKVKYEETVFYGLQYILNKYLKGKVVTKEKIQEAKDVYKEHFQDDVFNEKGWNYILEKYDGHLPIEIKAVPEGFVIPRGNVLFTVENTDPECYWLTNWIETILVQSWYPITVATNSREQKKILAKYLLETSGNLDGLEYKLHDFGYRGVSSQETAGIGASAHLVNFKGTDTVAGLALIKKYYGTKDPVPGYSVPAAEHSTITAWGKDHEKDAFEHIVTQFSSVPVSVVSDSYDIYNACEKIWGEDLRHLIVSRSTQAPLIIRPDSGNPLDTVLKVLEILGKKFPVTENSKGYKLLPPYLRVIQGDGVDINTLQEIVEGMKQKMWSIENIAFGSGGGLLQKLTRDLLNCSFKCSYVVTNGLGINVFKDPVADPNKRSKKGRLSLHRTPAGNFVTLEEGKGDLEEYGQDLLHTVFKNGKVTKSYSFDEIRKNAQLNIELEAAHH

Structure (SMILES)	IC50 (NAMPT) [nM]	IC50 (A2780 cells; Homo sapiens, A2780, 72 h) [nM]	IC50 (A2780 cells) [nM]
O=C(/C=C/c1cccnc1)Nc1ccc(S(=O)(=O)c2ccc(F)cc2)cc1 [(2E)-N-{4-[(4-fluorobenzene)sulfonyl]phenyl}-3-(pyridin-3-yl)prop-2-enamide]	2	158	
COc1ccc(Cl)cc1S(=O)(=O)c1ccc(NC(=O)/C=C/c2cccnc2)cc1 [(2E)-N-{4-[(5-chloro-2-methoxybenzene)sulfonyl]phenyl}-3-(pyridin-3-yl)prop-2-enamide]	4.6	12.6	
O=C(/C=C/c1cccnc1)Nc1ccc(S(=O)(=O)c2cncc3ccccc23)cc1 [(2E)-N-[4-(isoquinoline-4-sulfonyl)phenyl]-3-(pyridin-3-yl)prop-2-enamide]	2.45	21.7	
COc1ccc(S(=O)(=O)c2ccc(NC(=O)/C=C/c3cccnc3)cc2)cc1Cl [(2E)-N-{4-[(3-chloro-4-methoxybenzene)sulfonyl]phenyl}-3-(pyridin-3-yl)prop-2-enamide]	5.8	123	
CCNC(=O)c1ccc(S(=O)(=O)c2ccc(NC(=O)/C=C/c3cccnc3)cc2)cc1 [N-ethyl-4-({4-[(2E)-3-(pyridin-3-yl)prop-2-enamido]benzene}sulfonyl)benzamide]	14.7	100 to 1000	
CCOc1cc(Cl)ccc1S(=O)(=O)c1ccc(NC(=O)/C=C/c2cccnc2)cc1 [(2E)-N-{4-[(4-chloro-2-ethoxybenzene)sulfonyl]phenyl}-3-(pyridin-3-yl)prop-2-enamide]	4.2	9.68	
CS(=O)(=O)Nc1cccc(S(=O)(=O)c2ccc(NC(=O)/C=C/c3cccnc3)cc2)c1 [(2E)-N-{4-[(3-methanesulfonamidobenzene)sulfonyl]phenyl}-3-(pyridin-3-yl)prop-2-enamide]	7.5	100 to 1000	
O=C(/C=C/c1cccnc1)Nc1ccc(S(=O)(=O)c2ccc(Cl)c(C(F)(F)F)c2)cc1 [(2E)-N-(4-{[4-chloro-3-(trifluoromethyl)benzene]sulfonyl}phenyl)-3-(pyridin-3-yl)prop-2-enamide]	18.4	122	
O=C(/C=C/c1cccnc1)Nc1ccc(S(=O)(=O)c2cccnc2)cc1 [(2E)-3-(pyridin-3-yl)-N-[4-(pyridine-3-sulfonyl)phenyl]prop-2-enamide]	18.3	100 to 1000	
CCS(=O)(=O)c1cccc(S(=O)(=O)c2ccc(NC(=O)/C=C/c3cccnc3)cc2)c1 [(2E)-N-(4-{[3-(ethanesulfonyl)benzene]sulfonyl}phenyl)-3-(pyridin-3-yl)prop-2-enamide]	17.3	70.4	
O=C(/C=C/c1cccnc1)Nc1ccc(S(=O)(=O)c2cccc(F)c2)cc1 [(2E)-N-{4-[(3-fluorobenzene)sulfonyl]phenyl}-3-(pyridin-3-yl)prop-2-enamide]	66.4	103	
CCOc1ccc(Cl)cc1S(=O)(=O)c1ccc(NC(=O)/C=C/c2cccnc2)cc1 [(2E)-N-{4-[(5-chloro-2-ethoxybenzene)sulfonyl]phenyl}-3-(pyridin-3-yl)prop-2-enamide]	12.3	5.59	
CC(C)COc1cccc(S(=O)(=O)c2ccc(NC(=O)/C=C/c3cccnc3)cc2)c1 [(2E)-N-(4-{[3-(2-methylpropoxy)benzene]sulfonyl}phenyl)-3-(pyridin-3-yl)prop-2-enamide]	56.7	100 to 1000	
Cc1ccc(S(=O)(=O)c2ccc(NC(=O)/C=C/c3cccnc3)cc2)cc1Cl [(2E)-N-{4-[(3-chloro-4-methylbenzene)sulfonyl]phenyl}-3-(pyridin-3-yl)prop-2-enamide]	8.6	199	
CCCOc1ccc(S(=O)(=O)c2ccc(NC(=O)/C=C/c3cccnc3)cc2)cc1F [(2E)-N-{4-[(3-fluoro-4-propoxybenzene)sulfonyl]phenyl}-3-(pyridin-3-yl)prop-2-enamide]	40.9	100 to 1000	
O=C(/C=C/c1cccnc1)Nc1ccc(S(=O)(=O)N2CCC(N3CCOCC3)CC2)cc1 [(2E)-N-{4-[4-(morpholin-4-yl)piperidine-1-sulfonyl]phenyl}-3-(pyridin-3-yl)prop-2-enamide]	10	210	
CS(=O)(=O)c1cccc(S(=O)(=O)c2ccc(NC(=O)/C=C/c3cccnc3)cc2)c1 [(2E)-N-{4-[(3-methanesulfonylbenzene)sulfonyl]phenyl}-3-(pyridin-3-yl)prop-2-enamide]	14.3	100 to 1000	
CCNC(=O)c1cccc(S(=O)(=O)c2ccc(NC(=O)/C=C/c3cccnc3)cc2)c1 [N-ethyl-3-({4-[(2E)-3-(pyridin-3-yl)prop-2-enamido]benzene}sulfonyl)benzamide]	7.3	100 to 1000	

Structure (SMILES)	IC50 (NAMPT) [nM]	IC50 (A2780 cells; Homo sapiens, A2780, 72 h) [nM]	IC50 (A2780 cells) [nM]
Cn1cc(S(=O)(=O)c2ccc(NC(=O)/C=C/c3cccnc3)cc2)cn1 [(2E)-N-[4-(1-methyl-1H-pyrazole-4-sulfonyl)phenyl]-3-(pyridin-3-yl)prop-2-enamide]	7.7	100 to 1000	
O=C(/C=C/c1cccnc1)Nc1ccc(S(=O)(=O)c2cncc(N3CCCC3)c2)cc1 [(2E)-3-(pyridin-3-yl)-N-{4-[5-(pyrrolidin-1-yl)pyridine-3-sulfonyl]phenyl}prop-2-enamide]	1.4	51.1	
O=C(/C=C/c1cccnc1)Nc1ccc(S(=O)(=O)c2ccc(Cl)cc2)cc1 [(2E)-N-{4-[(4-chlorobenzene)sulfonyl]phenyl}-3-(pyridin-3-yl)prop-2-enamide]	43.5	100 to 1000	
O=C(/C=C/c1cccnc1)Nc1ccc(S(=O)(=O)c2ccc(N3CCOCC3)cc2)cc1 [(2E)-N-(4-{[4-(morpholin-4-yl)benzene]sulfonyl}phenyl)-3-(pyridin-3-yl)prop-2-enamide]	24.8	55.3	
CCOc1ccc(S(=O)(=O)c2ccc(NC(=O)/C=C/c3cccnc3)cc2)cc1 [(2E)-N-{4-[(4-ethoxybenzene)sulfonyl]phenyl}-3-(pyridin-3-yl)prop-2-enamide]	27.4	100 to 1000	
Cc1ccncc1S(=O)(=O)c1ccc(NC(=O)/C=C/c2cccnc2)cc1 [(2E)-N-[4-(4-methylpyridine-3-sulfonyl)phenyl]-3-(pyridin-3-yl)prop-2-enamide]	20.4	100 to 1000	
COc1ccccc1S(=O)(=O)c1ccc(NC(=O)/C=C/c2cccnc2)cc1 [(2E)-N-{4-[(2-methoxybenzene)sulfonyl]phenyl}-3-(pyridin-3-yl)prop-2-enamide]	7.7	24.1	
CCN(CC)C(=O)c1cc(Cl)cc(S(=O)(=O)c2ccc(NC(=O)/C=C/c3cccnc3)cc2)c1 [3-chloro-N,N-diethyl-5-({4-[(2E)-3-(pyridin-3-yl)prop-2-enamido]benzene}sulfonyl)benzamide]	19.4	27.4	
COc1ccc(S(=O)(=O)c2ccc(NC(=O)/C=C/c3cccnc3)cc2)cc1C [(2E)-N-{4-[(4-methoxy-3-methylbenzene)sulfonyl]phenyl}-3-(pyridin-3-yl)prop-2-enamide]	17.1	116	
O=C(/C=C/c1cccnc1)Nc1ccc(S(=O)(=O)Nc2ccccc2OC(F)(F)F)cc1 [(2E)-3-(pyridin-3-yl)-N-(4-{[2-(trifluoromethoxy)phenyl]sulfamoyl}phenyl)prop-2-enamide]	375	1270	
Cn1c(S(=O)(=O)c2ccc(NC(=O)/C=C/c3cccnc3)cc2)cc2ccccc21 [(2E)-N-[4-(1-methyl-1H-indole-2-sulfonyl)phenyl]-3-(pyridin-3-yl)prop-2-enamide]	21.8	100 to 1000	
O=C(/C=C/c1cccnc1)Nc1ccc(S(=O)(=O)c2cccc(C(=O)NC3CCCC3)c2)cc1 [N-cyclopentyl-3-({4-[(2E)-3-(pyridin-3-yl)prop-2-enamido]benzene}sulfonyl)benzamide]	16.1	100 to 1000	
O=C(/C=C/c1cccnc1)Nc1ccc(S(=O)(=O)c2cc(Cl)cc(Cl)c2)cc1 [(2E)-N-{4-[(3,5-dichlorobenzene)sulfonyl]phenyl}-3-(pyridin-] [(2E)-N-{4-[(3,5-dichlorobenzene)sulfonyl]phenyl}-3-(pyridin-3-yl)prop-2-enamide]	50.5		186
O=C(/C=C/c1cccnc1)Nc1ccc(S(=O)(=O)c2cccc(OC(F)(F)F)c2)cc1 [(2E)-3-(pyridin-3-yl)-N-(4-{[3-(trifluoromethoxy)benzene]sulfonyl}phenyl)prop-2-enamide]	61.5	47.7	
O=C(/C=C/c1cccnc1)Nc1ccc(S(=O)(=O)c2ccc(-n3cccn3)cc2)cc1 [(2E)-N-(4-{[4-(1H-pyrazol-1-yl)benzene]sulfonyl}phenyl)-3-(pyridin-3-yl)prop-2-enamide]	17.4	71.7	
O=C(/C=C/c1cccnc1)Nc1ccc(S(=O)(=O)c2ccc(Cl)c(Cl)c2)cc1 [(2E)-N-{4-[(3,4-dichlorobenzene)sulfonyl]phenyl}-3-(pyridin-3-yl)prop-2-enamide]	72.9	100 to 1000	
CCCn1cc(S(=O)(=O)c2ccc(NC(=O)/C=C/c3cccnc3)cc2)cn1 [(2E)-N-[4-(1-propyl-1H-pyrazole-4-sulfonyl)phenyl]-3-(pyridin-3-yl)prop-2-enamide]	2.6	20.8	
COc1cccc(S(=O)(=O)c2ccc(NC(=O)/C=C/c3cccnc3)cc2)c1 [(2E)-N-{4-[(3-methoxybenzene)sulfonyl]phenyl}-3-(pyridin-3-yl)prop-2-enamide]	85.7	114	
